Data: ChEMBL document CHEMBL1201862, “PubChem BioAssay data set” (2004)
Where a name gives a salt, the structure may show the parent alone. The source made the active and inactive calls.

Tests used:
[1] = HepG2 cell cytotoxicity, dose response, cytotoxicity control, ATP luminescence, cherry-pick, activator set 2 (AID 1053143); assay type: functional, cell-based
[2] = THP-1 cell cytotoxicity, dose response, cytotoxicity control for Vif-APOBEC3G degradation inhibitor project, THP-1 cells (AID 1117359); assay type: functional; settings: Human immunodeficiency virus 1, THP-1
[3] = Late stage assay provider results from the probe development effort to identify inhibitors of the Plasmodium falciparum M18 Aspartyl Aminopeptidase (M18AAP): radiolabel-based cell-based dose response assay to identify compounds that inhibit P. falciparum growth in RBCs, Set 2..; assay type: functional
[4] = T. cruzi intracellular amastigote growth inhibition, dose response, imaging, CA-I/72 strain, bovine embryo skeletal muscle, dry powder (AID 651885); assay type: functional, cell-based
[5] = human group III sPLA2 inhibitors, dose response, biochemical, QFRET, IC50 (AID 743457);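 also: green fluorescence rise as the enzyme cleaves BODIPY PC-A2 in liposomes; potency for inhibition of the enzyme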
HeLa [6] = assay: HeLa cell cytotoxicity, dose response, cytotoxicity control, ATP luminescence, cherry-pick samples (AID 687004); assay type: functional, cell-based; settings: Homo sapiens
HEK293 = assay: HEK293T cell cytotoxicity, dose response, cytotoxicity control, ATP luminescence, cherry-pick samples (AID 687005); assay type: functional, cell-based; settings: Homo sapiens;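 also: cells exposed to compound for 48 hours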
[7] = HEK293 Cytotoxicity Assay Measured in Cell-Based System Using Plate Reader - 7071-01_Inhibitor_Dose_CherryPick_Activity_Set2.; assay type: functional
[8] = Shn3 3'UTR reporter inhibitors, dose response, cell-based, Clone20 osteoblasts, firefly luciferase, cherry-picked (AID 624132); assay type: functional;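 also: firefly luciferase luminescence from reporter carrying the Shn3 3'UTR in osteoblasts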
[9] = HepG2 cell cytotoxicity, dose response, cytotoxicity control for Shn3 inhibitor project, CellTiter-Glo, cherry-picked (AID 624134); assay type: functional, cell-based
[10] = control 3'UTR Renilla luciferase suppression, dose response, counter-screen for Shn3 inhibitor project, cell-based, Clone20-Shn3RL, cherry-picked (AID 624133); assay type: functional
Protein Wnt-3a [11] = target: T1, Protein Wnt-3a (Mus musculus, UniProt P27467); assay: Wnt3a-driven reporter signaling inhibition, dose response, selectivity assay for Gli-SUFU antagonist project, Wnt-LIGHT cells, luminescence (AID 651570); assay type: functional; settings: read-out: IC50_Mean;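 also: Wnt-LIGHT reporter cells stimulated with conditioned medium from Wnt3a-producing cells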
T1 sequence (P27467 whole entry): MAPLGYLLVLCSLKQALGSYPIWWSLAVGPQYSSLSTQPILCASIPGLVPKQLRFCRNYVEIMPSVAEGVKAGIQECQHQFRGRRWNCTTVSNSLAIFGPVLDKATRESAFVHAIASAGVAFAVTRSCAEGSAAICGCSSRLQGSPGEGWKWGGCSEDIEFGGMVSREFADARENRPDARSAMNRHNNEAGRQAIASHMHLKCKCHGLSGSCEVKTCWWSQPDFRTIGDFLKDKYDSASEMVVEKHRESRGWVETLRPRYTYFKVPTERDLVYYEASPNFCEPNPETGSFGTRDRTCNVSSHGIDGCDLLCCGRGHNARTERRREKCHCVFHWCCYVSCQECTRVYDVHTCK

[12] = reduction of Shn3 3'UTR firefly luciferase signal, dose response, Schnurri-3 inhibitor project, cell-based, Clone20 osteoblasts, cherry-pick, set 2 (AID 720490); assay type: functional;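 also: actives lower the luminescence signal as inhibitors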
[13] = inhibitors of control Renilla luciferase reporter, dose response, counter-screen for Shn3 3'UTR targeting project, Clone20-Shn3RL cells, dual-Glo, cherry-pick, set 2 (AID 720724); assay type: functional, cell-based; settings: Dual-Go Shn3RL
[14] = target: Muscarinic acetylcholine receptor M5 (Homo sapiens, UniProt P08912); assay: M5 receptor positive allosteric modulators, dose response, cell-based, concentration-response curve (AID 651878); assay type: functional
Sequence of Muscarinic acetylcholine receptor M5 (P08912 whole entry): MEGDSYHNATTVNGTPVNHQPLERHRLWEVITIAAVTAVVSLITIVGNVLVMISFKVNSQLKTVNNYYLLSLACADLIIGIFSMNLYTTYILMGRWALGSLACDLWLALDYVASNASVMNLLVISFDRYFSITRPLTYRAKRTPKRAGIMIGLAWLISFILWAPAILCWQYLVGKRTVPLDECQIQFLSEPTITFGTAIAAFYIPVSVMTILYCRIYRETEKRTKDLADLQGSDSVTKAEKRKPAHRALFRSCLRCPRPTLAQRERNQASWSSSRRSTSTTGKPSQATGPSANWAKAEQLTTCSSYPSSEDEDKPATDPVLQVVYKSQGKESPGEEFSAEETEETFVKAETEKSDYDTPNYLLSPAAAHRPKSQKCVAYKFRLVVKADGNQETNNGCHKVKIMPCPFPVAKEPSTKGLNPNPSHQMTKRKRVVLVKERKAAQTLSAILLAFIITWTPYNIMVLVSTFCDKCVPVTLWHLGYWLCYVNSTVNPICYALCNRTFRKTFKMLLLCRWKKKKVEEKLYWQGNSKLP

[15] = HEK293T cell cytotoxicity, dose response, cytotoxicity control, luminescence plate reader, powder samples, set 4 (AID 651863); assay type: functional, cell-based; settings: HEK293
[16] = miR-122 activators in hepatoma reporter cells, dose response, cell-based, Huh7 psiCHECK-miR122, Renilla luciferase, cherry-picked (AID 651956); assay type: functional;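 also: huh7 hepatoma cells stably carrying a psiCHECK-2 miR-122 sensor plasmid; renilla luciferase signal reporting endogenous miR-122 activity after 48 h compound exposure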
[17] = HEK293T cytotoxicity, dose response, cytotoxicity control for miR-122 modulator project, cell-based, activator set, cherry-pick (AID 720690); assay type: functional;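 also: HEK293T human cells scored for general mammalian cytotoxicity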
HeLa [18] = assay: HeLa cell cytotoxicity, dose response, cytotoxicity control, 24 h, cherry-picked samples (AID 504726); assay type: functional, cell-based, Homo sapiens; settings: Homo sapiens, 24 h;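 also: potency for cytotoxicity as loss of luminescence signal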
P388/ADR = assay: cells; assay type: functional; settings: Mus musculus
SN12K1 = assay: cells; assay type: functional; settings: Homo sapiens
P388 = assay: cells; assay type: functional; settings: Mus musculus
[19] = target: T2, Small ubiquitin-related modifier 1 (Homo sapiens, UniProt P63165); assay: inhibitors of SUMO1 peptide binding, dose response, biochemical, fluorescence polarization, uHTS hits (AID 624382); assay type: functional; settings: read-out: IC50_Mean
T2 sequence (P63165 whole entry): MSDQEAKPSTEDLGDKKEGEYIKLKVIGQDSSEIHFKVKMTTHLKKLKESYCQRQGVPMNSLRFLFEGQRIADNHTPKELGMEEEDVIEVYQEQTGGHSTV

[20] = target: T2, Small ubiquitin-related modifier 1; assay: inhibitors of SUMO1 partner interactions, dose response, biochemical, FRET (AID 624383); assay type: functional; settings: read-out: IC50_Mean
[21] = HeLa cell cytotoxicity, dose response, cytotoxicity control for MgcRacGAP inhibitor project (AID 624300); assay type: functional
[22] = target: T3, Rac GTPase-activating protein 1 (Homo sapiens, UniProt Q9H0H5); assay: MgcRacGAP GTPase-activating activity inhibitors, confirmation, biochemical, ADP Hunter fluorescence, primary and confirmatory (AID 624330); assay type: functional
T3 sequence (Q9H0H5 whole entry): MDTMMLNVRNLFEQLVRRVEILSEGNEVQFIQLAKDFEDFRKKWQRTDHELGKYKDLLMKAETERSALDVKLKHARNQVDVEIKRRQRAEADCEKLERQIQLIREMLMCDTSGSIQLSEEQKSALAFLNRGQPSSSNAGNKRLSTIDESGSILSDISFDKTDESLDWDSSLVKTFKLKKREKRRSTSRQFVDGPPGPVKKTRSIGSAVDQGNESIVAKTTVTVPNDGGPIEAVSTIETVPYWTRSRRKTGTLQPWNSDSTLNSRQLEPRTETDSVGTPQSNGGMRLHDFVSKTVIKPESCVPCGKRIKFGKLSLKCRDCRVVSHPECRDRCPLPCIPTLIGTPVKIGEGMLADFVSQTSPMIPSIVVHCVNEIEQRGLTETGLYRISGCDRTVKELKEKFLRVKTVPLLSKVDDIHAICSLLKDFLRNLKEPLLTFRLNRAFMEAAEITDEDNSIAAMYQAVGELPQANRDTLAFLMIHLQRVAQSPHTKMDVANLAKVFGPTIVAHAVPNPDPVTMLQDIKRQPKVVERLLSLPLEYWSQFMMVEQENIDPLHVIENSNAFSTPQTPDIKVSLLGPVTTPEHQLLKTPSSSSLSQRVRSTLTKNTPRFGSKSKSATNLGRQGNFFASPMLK

[23] = target: DNA repair protein RAD52 homolog (Homo sapiens, UniProt P43351); assay type: functional, biochemical
Sequence of DNA repair protein RAD52 homolog (P43351 whole entry): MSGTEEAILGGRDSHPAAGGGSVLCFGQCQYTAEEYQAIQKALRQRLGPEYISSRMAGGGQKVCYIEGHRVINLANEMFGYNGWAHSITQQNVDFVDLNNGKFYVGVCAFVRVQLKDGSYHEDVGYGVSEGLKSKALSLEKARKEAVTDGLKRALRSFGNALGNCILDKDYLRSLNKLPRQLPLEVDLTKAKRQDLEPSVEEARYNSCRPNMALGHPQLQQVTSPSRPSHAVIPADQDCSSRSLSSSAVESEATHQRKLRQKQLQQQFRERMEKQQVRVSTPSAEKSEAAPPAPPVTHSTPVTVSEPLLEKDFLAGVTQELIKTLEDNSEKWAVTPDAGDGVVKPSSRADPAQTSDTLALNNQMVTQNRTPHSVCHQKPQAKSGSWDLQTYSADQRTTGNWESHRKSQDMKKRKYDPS

[24] = BHK-21 cell cytotoxicity, cytotoxicity control for flavivirus guanylyltransferase probe project, secondary screen (AID 624078); assay type: functional
[25] = A549 cell cytotoxicity, dose response, cytotoxicity control, 24 h, CellTiter-Glo luminescence, cherry-picks (AID 1053115); assay type: functional, cell-based; settings: A549, 24 h
[26] = P. falciparum Dd2 growth inhibitors, dose response, SYBR Green, cherry-picked samples (AID 1159567); assay type: functional, cell-based
[27] = HepG2 cell cytotoxicity, dose response, cytotoxicity control, cherry-picked samples (AID 1159577); assay type: functional, cell-based
cells [28] = assay type: functional, cell-based
[29] = target: T4, Trace amine-associated receptor 1 (Homo sapiens, UniProt Q96RJ0); assay: Fluorescence-based cell-based high throughput dose response assay to identify agonists of the human trace amine associated receptor 1 (TAAR1).; assay type: functional
T4 sequence (Q96RJ0 whole entry): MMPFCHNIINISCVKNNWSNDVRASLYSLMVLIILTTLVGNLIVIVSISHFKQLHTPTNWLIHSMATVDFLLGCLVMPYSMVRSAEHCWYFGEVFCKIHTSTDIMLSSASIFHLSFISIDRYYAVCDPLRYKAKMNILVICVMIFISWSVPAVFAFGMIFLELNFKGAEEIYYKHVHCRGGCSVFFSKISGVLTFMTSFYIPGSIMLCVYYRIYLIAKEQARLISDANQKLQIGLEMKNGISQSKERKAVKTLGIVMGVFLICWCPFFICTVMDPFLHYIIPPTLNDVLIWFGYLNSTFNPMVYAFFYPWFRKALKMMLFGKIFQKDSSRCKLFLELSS

[30] = target: T4, Trace amine-associated receptor 1; assay: Counterscreen for agonists of the human trace amine associated receptor 1 (hTAAR1): Fluorescence-based cell-based high throughput dose response assay to identify hTAAR1 agonist that also desensitize TAAR1 receptor response.; assay type: functional
cells [31] = assay type: functional, cell-based; remark: listed apart in the source
Cytochrome P450 3A4 = Cytochrome P450 3A4 (Homo sapiens, UniProt P08684); settings: Potency;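 also: confirmatory qHTS run detecting inhibitors and substrates of CYP3A4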
Sequence of Cytochrome P450 3A4 (P08684 whole entry, the tested form may be a part): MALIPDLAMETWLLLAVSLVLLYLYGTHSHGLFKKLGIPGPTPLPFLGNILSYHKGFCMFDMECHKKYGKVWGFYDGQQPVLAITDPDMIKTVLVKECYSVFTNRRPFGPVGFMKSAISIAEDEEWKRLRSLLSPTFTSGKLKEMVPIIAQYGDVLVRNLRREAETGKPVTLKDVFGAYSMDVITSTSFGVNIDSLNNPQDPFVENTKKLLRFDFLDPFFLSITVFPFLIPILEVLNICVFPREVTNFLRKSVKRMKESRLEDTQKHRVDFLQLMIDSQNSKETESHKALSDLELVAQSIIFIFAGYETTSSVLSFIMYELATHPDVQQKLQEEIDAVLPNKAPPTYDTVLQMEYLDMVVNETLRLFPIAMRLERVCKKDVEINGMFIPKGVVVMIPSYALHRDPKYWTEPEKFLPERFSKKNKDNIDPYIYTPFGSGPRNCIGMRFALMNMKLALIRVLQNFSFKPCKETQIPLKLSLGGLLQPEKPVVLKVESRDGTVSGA

[32] = inhibitors of HIV Env-driven cell fusion, dose response, cherry-pick (AID 652057); assay type: functional, cell-based
[33] = CEM21 lymphoblast cell cytotoxicity, dose response, cytotoxicity control for viral fusion inhibitor project, CellTiter-Glo luminescence, cherry-picked (AID 652042); assay type: functional, cell-based;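 also: potency for signal decrease meaning cytotoxicity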
[34] = ZM109 Env clade C HIV-1 fusion inhibitors, dose response, HeLa effector, CEM target cells, luciferase, cherry-pick (AID 652058); assay type: functional, cell-based
[35] = HIV Env cell-cell fusion inhibitors, dose response, HIV entry, plate reader, dry powder (AID 687023); assay type: functional, cell-based
[36] = CEM21 cell cytotoxicity, dose response, cytotoxicity control, plate reader, dry powder (AID 687026); assay type: functional, cell-based
[37] = target: Metabotropic glutamate receptor 5 (Rattus norvegicus, UniProt P31424); assay: Identification of a glycine sulfonamide based non-MPEP site positive allosteric potentiator (PAM) of mGlu5 (calcium_assay).; assay type: functional
Sequence of Metabotropic glutamate receptor 5 (P31424 whole entry): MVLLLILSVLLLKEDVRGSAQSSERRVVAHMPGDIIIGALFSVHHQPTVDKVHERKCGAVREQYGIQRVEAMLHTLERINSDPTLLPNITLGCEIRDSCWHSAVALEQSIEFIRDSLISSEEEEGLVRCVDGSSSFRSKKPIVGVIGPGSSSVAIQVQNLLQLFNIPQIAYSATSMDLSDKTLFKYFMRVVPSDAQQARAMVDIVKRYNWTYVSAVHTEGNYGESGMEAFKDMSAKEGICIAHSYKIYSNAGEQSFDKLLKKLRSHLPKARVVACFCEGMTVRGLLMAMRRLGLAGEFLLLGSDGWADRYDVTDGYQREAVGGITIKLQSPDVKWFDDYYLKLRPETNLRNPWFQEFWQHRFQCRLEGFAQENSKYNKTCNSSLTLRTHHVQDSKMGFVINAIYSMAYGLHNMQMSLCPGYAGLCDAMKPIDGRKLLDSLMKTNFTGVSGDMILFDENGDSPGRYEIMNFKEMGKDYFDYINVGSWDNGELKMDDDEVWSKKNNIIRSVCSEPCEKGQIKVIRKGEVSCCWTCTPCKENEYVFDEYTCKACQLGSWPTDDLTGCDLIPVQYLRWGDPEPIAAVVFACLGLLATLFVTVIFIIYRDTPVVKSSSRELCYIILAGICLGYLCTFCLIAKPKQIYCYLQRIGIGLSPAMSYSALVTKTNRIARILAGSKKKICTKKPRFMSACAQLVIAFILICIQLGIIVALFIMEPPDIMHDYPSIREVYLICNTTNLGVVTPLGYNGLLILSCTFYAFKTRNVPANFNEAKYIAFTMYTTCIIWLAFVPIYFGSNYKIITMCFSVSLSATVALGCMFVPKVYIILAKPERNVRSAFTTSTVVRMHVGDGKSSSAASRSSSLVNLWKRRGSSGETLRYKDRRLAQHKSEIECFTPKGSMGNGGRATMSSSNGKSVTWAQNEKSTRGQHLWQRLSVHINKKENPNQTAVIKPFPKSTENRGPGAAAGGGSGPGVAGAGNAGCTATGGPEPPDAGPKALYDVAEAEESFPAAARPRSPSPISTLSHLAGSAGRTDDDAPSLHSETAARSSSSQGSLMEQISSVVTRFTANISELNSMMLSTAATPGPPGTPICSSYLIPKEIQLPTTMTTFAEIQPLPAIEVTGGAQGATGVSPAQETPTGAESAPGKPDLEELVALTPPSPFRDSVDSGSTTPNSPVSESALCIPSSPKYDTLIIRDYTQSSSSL

[38] = T. cruzi growth inhibition in host cells, dose response, cell-based, plate reader, dry powder, set 2 (AID 652275); assay type: functional
Protein Wnt-3a [39] = target: T1, Protein Wnt-3a; assay: SAR analysis of small molecule antagonists of Gli-SUFU in a Wnt3a luminescent reporter assay.; assay type: functional

With O=C(NCC1CC1)c1ccc2c3n(nc2c1)-c1ccccc1CO3 the AC50 [1] was 26 µM (active) and the CC50 [2] was > 40 µM (active).
In the case of COc1ccc(CCNc2c3ccccc3nc3ccccc23)cc1OC, the IC50 [3] is reported as 2.4 µM (active).
In the case of CC(C)N1C[C@H](C)[C@@H](CN(C)C(=O)OC(C)(C)C)Oc2c(C(=O)Nc3ccncc3)cccc2C1=O, the IC50 [4] is reported as > 20 µM (inactive).
With O=C(NNC(=S)Nc1ccc(Br)cc1Cl)c1ccco1 the IC50 [5] was > 122 µM (inactive).
For COc1ccc(C#Cc2ccc3c(c2)O[C@@H](CN(C)C(C)=O)[C@@H](C)CN([C@H](C)CO)S3(=O)=O)cc1, the AC50 (HeLa [6]) was > 52 µM (inactive), the AC50 (HEK293) was 17.8 µM (active) and the AC50 [7] was 17.8 µM (active).
For O=C(Cn1cnc2ccccc21)Nc1cccc(S(=O)(=O)N2CCCC2)c1, the AC50 [8] was 2.77 µM (active), the AC50 [9] was 50.5 µM (active) and the AC50 [10] was 10.1 µM (active). The IC50 (Protein Wnt-3a [11]) was 13.1 µM (active), the AC50 [12] was 2.61 µM (active) and the AC50 [13] was 1.79 µM (active).
In the case of O=C1C(=O)N(CCOc2ccc(Br)cc2)c2ccc(OC(F)(F)F)cc21, the EC50 [14] is reported as 1.45 µM (active).
With CC(C)OC(=O)C(C(=O)C(F)(F)F)c1cc(NS(=O)(=O)c2ccccc2)c2ccccc2c1O (stereo not given) the AC50 [15] was 40.4 µM (active).
In the case of COc1ccc(C#Cc2ccc([C@H]3[C@H](CO)N4CCCCN(C(=O)Nc5ccccc5)C[C@@H]34)cc2)cc1, the AC50 [16] is reported as 6 µM (active) and the AC50 [17] is reported as 10 µM (active).
In the case of COc1ccc2[nH]c3c(C)c4cc[n+](C)cc4c(C)c3c2c1, the AC50 (HeLa [18]) is reported as 65.2 µM (active), the GI50 (P388/ADR) is reported as 55.8 µM (inactive) and the GI50 (SN12K1) is reported as 0.203 µM (active). The GI50 (P388) was 0.773 µM (active), the IC50 [19] was > 66.6 µM (inactive) and the IC50 [20] was 9.55 µM (active). The CC50 [21] was 100 µM (active), the IC50 [22] was 24.7 µM (active) and the AC50 [23] was < 0.15 µM (active).
For Cc1cc(C)c(S(=O)(=O)Nc2cc(SCC(=O)O)c(O)c3ccccc23)c(C)c1, the CC50 [24] was 9.03 µM (active).
With COc1ccccc1CN1CC[C@H]2[C@H](CO)Nc3ccc(C#Cc4ccccc4)cc3[C@H]21 the AC50 (HeLa [6]) was 10.2 µM (active), the AC50 [25] was > 60 µM (inactive) and the AC50 [26] was 1.45 µM (active). The AC50 [27] was 11.4 µM (active).
In the case of NCC(=O)c1ccccc1 [PHENACYLAMINE HYDROCHLORIDE], the IC50 (cells [28]) is reported as > 29.9 µM (inactive), the EC50 [29] is reported as 1.08 µM (active) and the IC50 [30] is reported as 7.42 µM (active). The EC50 (cells [31]) was > 29.9 µM (inactive) and the AC50 (Cytochrome P450 3A4) was 6.31 µM (inconclusive).
In the case of COc1cccc(S(=O)(=O)Nc2ccc3c(c2)[C@H]2C[C@H](CC(=O)NCc4ccc(Cl)cc4)O[C@@H](CO)[C@H]2O3)c1, the AC50 [32] is reported as 9.17 µM (active), the AC50 [33] is reported as 67 µM (active) and the AC50 [34] is reported as 1.29 µM (active). The AC50 [35] was 19.4 µM (active) and the AC50 [36] was > 70 µM (inactive).
CS(=O)(=O)N(CC(=O)NCC1CC1)c1cc(C(F)(F)F)ccc1Cl gave an EC50 [37] of 0.298 µM.
With CC(C)N1C[C@H](C)[C@@H](CN(C)Cc2ccc(Oc3ccccc3)cc2)Oc2c(cccc2-c2nnc(-c3ccncc3)o2)C1=O the AC50 [38] was 0.116 µM (active).
With CCN(CC)c1cc(NC(=O)c2cccc(C#N)c2)ncn1 the IC50 (Protein Wnt-3a [39]) was > 21.8 µM (inactive).
